The values below come from patent publication US10428044B2, “3-amino-1,5,6,7-tetrahydro-4H-indol-4-ones” (Bayer Pharma Aktiengesellschaft, priority 2014, dated 2019).

Chain of (recombinant) catalytic domain of human Bub1 (amino acids 704-1085) (O43683 704-1085): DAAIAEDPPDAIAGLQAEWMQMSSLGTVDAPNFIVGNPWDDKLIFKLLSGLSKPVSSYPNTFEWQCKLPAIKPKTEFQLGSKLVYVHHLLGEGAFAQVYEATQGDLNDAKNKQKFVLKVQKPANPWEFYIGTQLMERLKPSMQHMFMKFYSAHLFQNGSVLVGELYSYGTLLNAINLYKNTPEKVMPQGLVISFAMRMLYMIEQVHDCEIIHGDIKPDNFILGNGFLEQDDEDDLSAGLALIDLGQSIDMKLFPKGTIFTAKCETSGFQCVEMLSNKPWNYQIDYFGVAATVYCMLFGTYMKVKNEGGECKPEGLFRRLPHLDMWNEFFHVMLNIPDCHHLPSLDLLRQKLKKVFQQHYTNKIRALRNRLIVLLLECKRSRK

The assay has as its target (recombinant) catalytic domain of human Bub1 (amino acids 704-1085) (Homo sapiens (Human), UniProt O43683). The experiment in a line: Bub1 kinase assay (TR-FRET). It counts as biochemical. The settings on record: ATP 10 μM final, peptide substrate 1 μM final, 60 min at 22° C., read-out: Biological Assay: Bub1 kinase assay median IC50. The method, boiled down:
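Readout was TR-FRET between a Eu-labeled antibody complex recognizing phosphoserine and streptavidin-XL665 on the biotinylated peptide, after EDTA stop and 1 h at 22° C. The kinase reaction ran for 60 min at 22° C. Values are means or medians of repeat tests, from 4-parameter fits normalized to enzyme-free and inhibitor-free controls.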
Background: Time-resolved FRET reads energy transfer from a long-lived donor to a nearby acceptor.
As a reminder, the IC50 is the concentration that gives 50% inhibition. For `Cc1nnc(COCC(=O)Nc2cc(-c3[nH]c4c(c3Nc3ccccc3)C(=O)CCC4)ccn2)s1` [Example 356, 2-[(5-methyl-1,3,4-thiadiazol-2-yl)methoxy]-N-{4-[4-oxo-3-(phenylamino)-4,5,6,7-tetrahydro-1H-indol-2-yl]pyridin-2-yl}acetamide], the IC50 is 7.91 nM.
With `CC(=O)Nc1cc(-c2[nH]c3c(c2Nc2ccccc2)C(=O)CC(C)(C)C3)ncn1` [Example 357, N-{6-[6,6-dimethyl-4-oxo-3-(phenylamino)-4,5,6,7-tetrahydro-1H-indol-2-yl]pyrimidin-4-yl}acetamide], the 50% inhibitory concentration (IC50) turned out to be 3080 nM.
Regarding `CNc1cc(-c2[nH]c3c(c2Nc2ccccc2)C(=O)CCC3)ccn1` [Example 358, 2-[2-(methylamino)pyridin-4-yl]-3-(phenylamino)-1,5,6,7-tetrahydro-4H-indol-4-one], the IC50 turned out to be 1130 nM.
Next, `CC1(C)CC(=O)c2c([nH]c(-c3ccnc(NC4CCC4)c3)c2Nc2ccccc2)C1` [Example 359, 2-[2-(cyclobutylamino)pyridin-4-yl]-6,6-dimethyl-3-(phenylamino)-1,5,6,7-tetrahydro-4H-indol-4-one]: 208 nM; `CC1(C)CC(=O)c2c([nH]c(-c3ccnc(N4CCC4)c3)c2Nc2ccccc2)C1` [Example 360, 2-[2-(azetidin-1-yl)pyridin-4-yl]-6,6-dimethyl-3-(phenylamino)-1,5,6,7-tetrahydro-4H-indol-4-one]: 12700 nM.
Take `CC1(C)CC(=O)c2c([nH]c(-c3ccnc(NCC(F)(F)F)c3)c2Nc2ccccc2)C1` [Example 361, 6,6-dimethyl-3-(phenylamino)-2-{2-[(2,2,2-trifluoroethyl)amino]pyridin-4-yl}-1,5,6,7-tetrahydro-4H-indol-4-one]: the IC50 came to 600 nM.
`CC1(C)CC(=O)c2c([nH]c(-c3ccnc(NCCC(F)(F)F)c3)c2Nc2ccccc2)C1` [Example 362, 6,6-dimethyl-3-(phenylamino)-2-{2-[(3,3,3-trifluoropropyl)amino]pyridin-4-yl}-1,5,6,7-tetrahydro-4H-indol-4-one]: the IC50 was determined as 392 nM.
As for `CC(Nc1cc(-c2[nH]c3c(c2Nc2ccccc2)C(=O)CC(C)(C)C3)ccn1)C(F)F` (stereo not shown) [Example 363, 2-(2-{[1,1-difluoropropan-2-yl]amino}pyridin-4-yl)-6,6-dimethyl-3-(phenylamino)-1,5,6,7-tetrahydro-4H-indol-4-one], the IC50 stood at 207 nM.
With `CC(C)Nc1cc(-c2[nH]c3c(c2Nc2ccccc2)C(=O)CCC3)ccn1` [Example 364, 3-(phenylamino)-2-[2-(propan-2-ylamino)pyridin-4-yl]-1,5,6,7-tetrahydro-4H-indol-4-one], the concentration for half-maximal inhibition (IC50) was determined as 502 nM.
Turning to `O=C1CCCc2[nH]c(-c3ccnc(NCCC(F)(F)F)c3)c(Nc3ccccc3)c21` [Example 365, 3-(phenylamino)-2-{2-[(3,3,3-trifluoropropyl)amino]pyridin-4-yl}-1,5,6,7-tetrahydro-4H-indol-4-one], the IC50 stood at 604 nM.
`O=C1CCCc2[nH]c(-c3ccnc(NCc4ccccc4)c3)c(Nc3ccccc3)c21` [Example 366, 2-[2-(benzylamino)pyridin-4-yl]-3-(phenylamino)-1,5,6,7-tetrahydro-4H-indol-4-one]: the 50% inhibitory concentration (IC50) is 1660 nM.
In the case of `O=C1CCCc2[nH]c(-c3ccnc(NCc4ccncc4)c3)c(Nc3ccccc3)c21` [Example 367, 3-(phenylamino)-2-{2-[(pyridin-4-ylmethyl)amino]pyridin-4-yl}-1,5,6,7-tetrahydro-4H-indol-4-one], the IC50 worked out at 291 nM.
With `O=C1CCCc2[nH]c(-c3ccnc(NCC4CC4)c3)c(Nc3ccccc3)c21` [Example 368, 2-{2-[(cyclopropylmethyl)amino]pyridin-4-yl}-3-(phenylamino)-1,5,6,7-tetrahydro-4H-indol-4-one], the half-inhibitory concentration (IC50) amounted to 622 nM.
With `O=C(O)CNc1cc(-c2[nH]c3c(c2Nc2ccccc2)C(=O)CCC3)ccn1` [Example 369, N-{4-[4-oxo-3-(phenylamino)-4,5,6,7-tetrahydro-1H-indol-2-yl]pyridin-2-yl}glycine], the half-inhibitory concentration (IC50) stood at 362 nM.
The value for `CC1(C)OC[C@H](CNc2cc(-c3[nH]c4c(c3Nc3ccccc3)C(=O)CCC4)ccn2)O1` [Example 370, 2-[2-({[(4S)-2,2-dimethyl-1,3-dioxolan-4-yl]methyl}amino)pyridin-4-yl]-3-(phenylamino)-1,5,6,7-tetrahydro-4H-indol-4-one] was 1300 nM; that for `O=C1CCCc2[nH]c(-c3ccnc(NC[C@H](O)CO)c3)c(Nc3ccccc3)c21` [Example 371, 2 2-(2-{[(2S)-2,3-dihydroxypropyl]amino}pyridin-4-yl)-3-(phenylamino)-1,5,6,7-tetrahydro-4H-indol-4-one] was 1010 nM; that for `O=C1CCCc2[nH]c(-c3ccnc(NCc4cccnc4)c3)c(Nc3ccccc3)c21` [Example 372, 3-(phenylamino)-2-{2-[(pyridin-3-ylmethyl)amino]pyridin-4-yl}-1,5,6,7-tetrahydro-4H-indol-4-one] was 9530 nM.
Next, `CC(C)(C)OC(=O)N1CC(CNc2cc(-c3[nH]c4c(c3Nc3ccccc3)C(=O)CCC4)ccn2)C1` [Example 373, tert-butyl 3-[({4-[4-oxo-3-(phenylamino)-4,5,6,7-tetrahydro-1H-indol-2-yl]pyridin-2-yl}amino)methyl]azetidine-1-carboxylate]: 694 nM.
Next, `Cn1nnnc1Nc1cc(-c2[nH]c3c(c2Nc2ccccc2)C(=O)CCC3)ccn1` [Example 374, 2-{2-[(1-methyl-1H-tetrazol-5-yl)amino]pyridin-4-yl}-3-(phenylamino)-1,5,6,7-tetrahydro-4H-indol-4-one]: 18.8 nM; `O=C1CCCc2[nH]c(-c3ccnc(Nc4cccc(F)c4)c3)c(Nc3ccccc3)c21` [Example 375, 2-{2-[(3-fluorophenyl)amino]pyridin-4-yl}-3-(phenylamino)-1,5,6,7-tetrahydro-4H-indol-4-one]: 330 nM; `CC(C)Nc1cnccc1-c1[nH]c2c(c1Nc1ccccc1)C(=O)CCC2` [Example 376, 3-(phenylamino)-2-[3-(propan-2-ylamino)pyridin-4-yl]-1,5,6,7-tetrahydro-4H-indol-4-one]: 2510 nM.
With `CCNC(=O)Nc1cc(-c2[nH]c3c(c2Nc2ccccc2)C(=O)CCC3)ccn1` [Example 377, 1-ethyl-3-{4-[4-oxo-3-(phenylamino)-4,5,6,7-tetrahydro-1H-indol-2-yl]pyridin-2-yl}urea], the IC50 was 30.1 nM.
Next, `CC(C)NC(=O)Nc1cc(-c2[nH]c3c(c2Nc2ccccc2)C(=O)CCC3)ccn1` [Example 378, 1-{4-[4-oxo-3-(phenylamino)-4,5,6,7-tetrahydro-1H-indol-2-yl]pyridin-2-yl}-3-propan-2-ylurea]: 64.5 nM.
Next, `O=C(Nc1cc(-c2[nH]c3c(c2Nc2ccccc2)C(=O)CCC3)ccn1)NC1CC1` [Example 379, 1-cyclopropyl-3-{4-[4-oxo-3-(phenylamino)-4,5,6,7-tetrahydro-1H-indol-2-yl]pyridin-2-yl}urea]: 36.6 nM; `CC(C)(C)NC(=O)Nc1cc(-c2[nH]c3c(c2Nc2ccccc2)C(=O)CCC3)ccn1` [Example 380, 1-tert-butyl-3-{4-[4-oxo-3-(phenylamino)-4,5,6,7-tetrahydro-1H-indol-2-yl]pyridin-2-yl}urea]: 437 nM; `CC(C)CNC(=O)Nc1cc(-c2[nH]c3c(c2Nc2ccccc2)C(=O)CCC3)ccn1` [Example 381, 1-(2-methylpropyl)-3-{4-[4-oxo-3-(phenylamino)-4,5,6,7-tetrahydro-1H-indol-2-yl]pyridin-2-yl}urea]: 94.4 nM.
For the compound `O=C(NCC(F)(F)F)Nc1cc(-c2[nH]c3c(c2Nc2ccccc2)C(=O)CCC3)ccn1` [Example 382, 1-{4-[4-oxo-3-(phenylamino)-4,5,6,7-tetrahydro-1H-indol-2-yl]pyridin-2-yl}-3-(2,2,2-trifluoroethyl)urea], the IC50 worked out at 84 nM.
As for `COCCNC(=O)Nc1cc(-c2[nH]c3c(c2Nc2ccccc2)C(=O)CCC3)ccn1` [Example 383, 1-(2-methoxyethyl)-3-{4-[4-oxo-3-(phenylamino)-4,5,6,7-tetrahydro-1H-indol-2-yl]pyridin-2-yl}urea], the concentration for half-maximal inhibition (IC50) turned out to be 69.1 nM.
`O=C(NCc1ccco1)Nc1cc(-c2[nH]c3c(c2Nc2ccccc2)C(=O)CCC3)ccn1` [Example 384, 1-(furan-2-ylmethyl)-3-{4-[4-oxo-3-(phenylamino)-4,5,6,7-tetrahydro-1H-indol-2-yl]pyridin-2-yl}urea]: the half-maximal inhibitory concentration (IC50) amounted to 113 nM.
Take `O=C(Nc1ccncc1)Nc1cc(-c2[nH]c3c(c2Nc2ccccc2)C(=O)CCC3)ccn1` [Example 385, 1-{4-[4-oxo-3-(phenylamino)-4,5,6,7-tetrahydro-1H-indol-2-yl]pyridin-2-yl}-3-pyridin-4-ylurea]: the IC50 is 10.1 nM.
Consider `O=C(Nc1ccccn1)Nc1cc(-c2[nH]c3c(c2Nc2ccccc2)C(=O)CCC3)ccn1` [Example 386, 1-{4-[4-oxo-3-(phenylamino)-4,5,6,7-tetrahydro-1H-indol-2-yl]pyridin-2-yl}-3-pyridin-2-ylurea], for which the IC50 came to 20.3 nM.
On to `O=C(NCC(F)F)Nc1cc(-c2[nH]c3c(c2Nc2ccccc2)C(=O)CCC3)ccn1` [Example 387, 1-(2,2-difluoroethyl)-3-{4-[4-oxo-3-(phenylamino)-4,5,6,7-tetrahydro-1H-indol-2-yl]pyridin-2-yl}urea], for which the concentration for half-maximal inhibition (IC50) came to 63.5 nM.
The value for `O=C(NCCCl)Nc1cc(-c2[nH]c3c(c2Nc2ccccc2)C(=O)CCC3)ccn1` [Example 388, 1-(2-chloroethyl)-3-{4-[4-oxo-3-(phenylamino)-4,5,6,7-tetrahydro-1H-indol-2-yl]pyridin-2-yl}urea] was 43.4 nM; that for `CSCCNC(=O)Nc1cc(-c2[nH]c3c(c2Nc2ccccc2)C(=O)CCC3)ccn1` [Example 389, 1-[2-(methylsulfanyl)ethyl]-3-{4-[4-oxo-3-(phenylamino)-4,5,6,7-tetrahydro-1H-indol-2-yl]pyridin-2-yl}urea] was 38.9 nM.
